{"source": "patent US20200360466A1", "about": "“METHOD OF IMPROVING LOWER URINARY TRACT SYMPTOMS” (Nymox Corporation, priority 2019, published 2020)", "type_in_all_cases": "in vivo, human", "key": {"[1]": {"system": "patients with BPH who optionally also had LUTS", "experiment": "IPSS symptom evaluation after a single intraprostatic injection of FT or PBS, double-blind (Example One)", "protocol": "Patients with BPH and who optionally also had LUTS were given an intraprostatic injection of either a) FT (SEQ ID NO. 1 (Ile-Asp-Gln-Gln-Val-Leu-Ser-Arg-Ile-Lys-Leu-Glu-Ile-Lys-Arg-Cys-Leu), 2.5 mg) in phosphate buffered saline pH 7.2 (“PBS”) or b) PBS alone, under double-blind conditions by a urologist in an office setting under ultrasound guidance. Patients were followed for 1 to 6 years with regular physical examinations, laboratory tests, and evaluations of symptoms. Symptomatic evaluation was measured by the International Prostate Symptom Score (IPSS) which is a quantitative scale used to gauge prostatic symptomatic improvement or worsening. The IPSS quantifies the following: 1) incomplete bladder emptying after urination; 2) frequent urination; 3) stopping and starting during urination; 4) urgent need to urinate; 5) weakness of urinary stream; 6) need to push or strain during urination; 7) need to urinate after going to sleep at night (nocturia).\nIPSS items 1, 3, 5 and 6 comprise the obstructive voiding scales and IPSS items 2, 4, and 7 comprise the irritative storage scales. The difference from baseline irritative storage scores to follow-up scores; and from baseline obstructive voiding scores to follow-up scores were calculated in FT treated subjects and Placebo treated controls."}, "[2]": {"system": "patients with BPH who also optionally had LUTS", "experiment": "IPSS obstructive voiding scores after placebo injection followed by cross-over FT injection (Example Three)", "description": "In a third analysis group, patients with BPH who also optionally had LUTS were given an intraprostatic injection of PBS pH 7.2 vehicle alone, under double-blind conditions by a urologist in an office setting under ultrasound guidance. Patients were followed for 1 to 3 years with regular physical examinations, laboratory tests, and evaluations of symptoms. 131 patients who received PBS vehicle alone injections after 1-3 years received a cross-over injection of FT (SEQ ID NO. 1 (Ile-Asp-Gln-Gln-Val-Leu-Ser-Arg-Ile-Lys-Leu-Glu-Ile-Lys-Arg-Cys-Leu), 2.5 mg) in phosphate buffered saline pH 7.2 (“PBS”). The differences from baseline obstructive voiding scores to follow-up scores were calculated in blinded placebo treated patients (Group One); blinded placebo treated patients who received subsequent conventional oral BPH medications (Group Two), and blinded placebo treated patients who subsequently received FT treatment (Group Three)."}, "[3]": {"system": "patients with BPH who also optionally had LUTS", "experiment": "IPSS obstructive voiding scores in all patients who received FT versus placebo alone (Example Four)", "conditions": "Table 4, all FT-treated patients vs placebo alone", "description": "In a fourth analysis group, patients with BPH who also optionally had LUTS were given an intraprostatic injection of PBS pH 7.2 vehicle alone or of FT, under double-blind conditions by a urologist in an office setting under ultrasound guidance. Patients were followed for 1 to 3 years with regular physical examinations, laboratory tests, and evaluations of symptoms. 217 patients received double blind placebo alone (Group One). 287 patients received double blind FT alone (Group Two). After 1-3 years, 131 patients who received PBS vehicle alone injections received a cross-over injection of FT (Group Three). The final group of 189 patients received blinded FT followed after 1-3 years by a second injection of FT (Group Four). The difference from baseline obstructive voiding scores to follow-up scores were calculated in blinded placebo treated patients (n=217), and compared to groups 2-4 who received FT treatment (n=607)."}, "[4]": {"conditions": "Table 1, single FT injection vs PBS control"}, "[5]": {"conditions": "general statement in the description"}}, "note": "Where no end group is shown, it is not given here.", "data": [{"substance": "Ile-Asp-Gln-Gln-Val-Leu-Ser-Arg-Ile-Lys-Leu-Glu-Ile-Lys-Arg-Cys-Leu (IDQQVLSRIKLEIKRCL; also: trifluoroacetate salt) [SEQ ID NO: 1-FT, 17-mer peptide …]", "values": [{"measurement": "improvement in MISS measured by IPSS compared to control composition that does not contain FT", "setting": "[1]; [4]", "value": "more than 34%"}, {"measurement": "improvement in MOVS measured by IPSS compared to control composition that does not contain FT", "setting": "[1]; [4]", "value": "more than 46%"}, {"measurement": "improvement in MISS measured by IPSS compared to control composition that does not contain FT", "setting": "[1]; [5]", "value": "more than 20%"}, {"measurement": "improvement in MOVS measured by IPSS compared to control composition that does not contain FT", "setting": "[1]; [5]", "value": "more than 30%"}, {"measurement": "improvement in MOVS measured by IPSS compared to placebo control followed by conventional oral BPH medication", "setting": "[2]; Table 3, cross-over FT injection", "value": "more than 320%"}, {"measurement": "improvement in MOVS measured by IPSS compared to control composition that does not contain FT", "setting": "[2]; Table 3, cross-over FT injection vs placebo alone", "value": "more than 104%"}, {"measurement": "improvement in MOVS measured by IPSS compared to control composition that does not contain FT", "setting": "[3]", "value": "more than 105%"}]}]}
